Tested on: diabetic mice
Assay: Fasting blood glucose in diabetic mice fed test diets
Assay type: in vivo, Mice (C57BL/6J)
Method: Mice (C57BL/6J) weighing 20-grams were fed a high fat, high sucrose diet with no added chromium (No. D01030101, Research Diets Inc., New Brunswick, N.J.). After two weeks, they were injected intraperitoneally (i.p.) with streptozotocin (in phosphate-buffered saline, PBS) at a dose of 35 mg/kg body weight on 3 consecutive days. The combination of the high fat/high sucrose diet and streptozotocin treatment produced an impaired glucose tolerance evident 7 days following the initial streptozotocin injection (FIG. 5). Glucose tolerance was measured in mice fasted overnight and then injected i.p. with 1 g glucose/kg body weight (0.25 mL of a 10% glucose solution in PBS). Blood glucose was measured using a glucometer (OneTouch Ultra, LifeScan Inc., Milpitas, Calif.) on a drop of blood obtained from the saphenous vein just prior to (0 time) and at 10, 30, 60, 90 and 120 minutes following injection.
Animals were subsequently assigned to one of four different diet treatments, six animals per group. The diets were modified from the above high fat, high sucrose diet (Table 6). Each diet contained 1.5% fish oil concentrate (40:20 EPA/DHA ethyl ester, Ocean Nutrition Canada, Ltd., Mulgrave, NS). […] The animals were fed these diets for 4 weeks, after which time, fasting blood glucose and glucose tolerance was evaluated. […]

SMILES: O=C([O-])c1ccccn1.O=C([O-])c1ccccn1.O=C([O-])c1ccccn1.[Cr+3] [Cr picolinate]
- Fast blood glucose levels (diabetic mice (high fat/high sucrose diet + streptozotocin), diet with 1000 μg elemental Cr/kg diet for 4 weeks, fasted): 8.17 ± 1.8 mM
- fasting blood glucose compared to the level in the control group (diabetic mice, dietary Cr for 4 weeks): reduction in fasting blood glucose

From patent US20080206316A1, “Chromium-Fatty Acid Compounds and Methods of Making and Using Thereof” (priority 2005, published 2008)
